Type in all cases: biochemical
Assay [1] has as its target T1, FGF-1 (flg) receptor tyrosine kinase (Homo sapiens, UniProt P11362).
T1 construct: amplify a fragment of DNA that codes for the intracellular tyrosine kinase domain; made in house; host or cells: SF9 insect cells (baculovirus); crude cell lysate used
As to the kind of experiment: FGF Receptor Tyrosine Kinase Assay. To be noted: glutamate-tyrosine co-polymer substrate, 50 µM ATP. The procedure:
PDGF and FGF Receptor Tyrosine Kinase Assays
PCR primers were designed to amplify a fragment of DNA that codes for the intracellular tyrosine kinase domain. The fragment was inserted into a baculovirus vector, cotransfected with AcMNPV DNA, and the recombinant virus isolated. SF9 insect cells were infected with the virus to overexpress the protein, and the cell lysate was used for the assay. Assays were performed in 96-well plates (100 µL/incubation/well), and conditions were optimized to measure the incorporation of ^32P from γ^32P-ATP into a glutamate-tyrosine co-polymer substrate. Briefly, to each well was added 82.5 µL of incubation buffer containing 25 mM Hepes (pH 7.0), 150 mM NaCl, 0.1% Triton X-100, 0.2 mM PMSF, 0.2 mM Na3VO4, 10 mM MnCl2, and 750 µg/mL of Poly (4:1) glutamate-tyrosine followed by 2.5 µL of inhibitor and 5 µL of enzyme lysate (7.5 µg/µL FGF-TK or 6.0 µg/µL PDGF-TK) to initiate the reaction. […] The reaction was terminated by the addition of 100 µL of 30% trichloroacetic acid (TCA) containing 20 mM sodium pyrophosphate and precipitation of material onto glass fiber mats (Wallac). […] Nonspecific activity was defined as radioactivity retained on the filters following incubation of samples with buffer alone (no enzyme). Specific enzymatic activity (enzyme plus buffer) was defined as total activity minus nonspecific activity. […]

Assay [2] addresses cdk4/D (Homo sapiens, UniProt P11802). Put plainly: Cyclin-Dependent Kinase 4 (cdk4) Assay. As to the method: A typical assay, for instance, measures inhibitory activity against the cyclin D dependent kinase 4 enzyme (cdk4/D). […] The cdk4 assay was carried out as follows.
Cyclin-Dependent Kinase 4 (cdk4) Assay
Enzyme assays for IC50 determinations (Tables 1 and 2) and kinetic evaluation were performed in 96 well filter plates (Millipore MADVN6550). The total volume was 0.1 mL containing a final concentration of 20 mM TRIS (tris[hydroxymethyl]aminomethane), at pH 7.4, 50 mM NaCl, 1 mM dithiothreitol, 10 mM MgCl2, 25 µM ATP containing 0.25 µCi of [^32P]ATP, 20 ng of cdk4, 1 µg of retinoblastoma, and appropriate dilutions of a compound of the present invention. All components except the ATP were added to the wells, and the plate was placed on a plate mixer for 2 minutes. The reaction was started by adding [^32P]ATP and the plate was incubated at 25°C for 15 minutes. The reaction was terminated by addition of 0.1 mL of 20% trichloroacetic acid (TCA). The plate was kept at 4°C for at least 1 hour to allow the substrate to precipitate. The wells were then washed five times with 0.2 mL of 10% TCA and ^32P incorporation was determined with a beta plate counter (Wallac Inc., Gaithersburg, MD).

Assay [3] addresses cdk2/cyclinA (Homo sapiens, UniProt P24941). As to the kind of experiment: Cyclin-Dependent Kinase Assay cdk2/cyclinA. As to the method:
(§1) Cyclin-Dependent Kinase Assays (cdk2/cyclinE, cdk2/cyclinA, cdc2/cyclinB)
(§2) All components except the ATP were added to the wells, and the plate was placed on a plate mixer for 2 minutes. The reaction was begun by addition of [^32P]ATP, and the plate was incubated at 25°C for 15 minutes. The reaction was terminated by addition of 0.1 mL of 20% TCA. The plate was kept at 4°C for at least 1 hour to allow the substrate to precipitate. The wells were then washed five times with 0.2 mL of 10% TCA and ^32P incorporation determined with a beta plate counter (Wallac Inc., Gaithersburg, MD).

Assay [4] has as its target cdk2/cyclinE (Homo sapiens, UniProt P24941). Put plainly: Cyclin-Dependent Kinase Assay cdk2/cyclinE. The procedure: as §1, §2
Assay [5] deals with cdc2/cyclinB (Homo sapiens, UniProt P06493). As to the kind of experiment: Cyclin-Dependent Kinase Assay cdc2/cyclinB. The procedure:
as §1, §2

[6] abbreviates: retinoblastoma substrate, read-out: IC50 (µM) cdk2/A.
Where [7] appears, read: retinoblastoma substrate, read-out: IC50 (µM) cdk2/E.
The mark [8] stands for this setting: 25 µM ATP, retinoblastoma substrate, read-out: IC50 (µM) cdk4/D.
Where [9] appears, read: retinoblastoma substrate, read-out: IC50 (µM) cdkl/B.

Molecules are shown by their SMILES. Like-named read-outs stand apart in the source and are kept apart here.

cdc2/cyclinB, sequence (P06493 whole entry): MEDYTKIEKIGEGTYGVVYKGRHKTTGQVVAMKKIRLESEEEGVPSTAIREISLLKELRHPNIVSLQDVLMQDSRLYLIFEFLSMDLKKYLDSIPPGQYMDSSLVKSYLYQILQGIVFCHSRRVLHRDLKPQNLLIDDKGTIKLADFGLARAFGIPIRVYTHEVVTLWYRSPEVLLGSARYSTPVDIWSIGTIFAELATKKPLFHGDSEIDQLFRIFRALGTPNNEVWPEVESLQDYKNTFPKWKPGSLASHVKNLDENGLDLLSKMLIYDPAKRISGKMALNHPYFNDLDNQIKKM
cdc2/cyclinB, sequence (P14635 whole entry, further chain): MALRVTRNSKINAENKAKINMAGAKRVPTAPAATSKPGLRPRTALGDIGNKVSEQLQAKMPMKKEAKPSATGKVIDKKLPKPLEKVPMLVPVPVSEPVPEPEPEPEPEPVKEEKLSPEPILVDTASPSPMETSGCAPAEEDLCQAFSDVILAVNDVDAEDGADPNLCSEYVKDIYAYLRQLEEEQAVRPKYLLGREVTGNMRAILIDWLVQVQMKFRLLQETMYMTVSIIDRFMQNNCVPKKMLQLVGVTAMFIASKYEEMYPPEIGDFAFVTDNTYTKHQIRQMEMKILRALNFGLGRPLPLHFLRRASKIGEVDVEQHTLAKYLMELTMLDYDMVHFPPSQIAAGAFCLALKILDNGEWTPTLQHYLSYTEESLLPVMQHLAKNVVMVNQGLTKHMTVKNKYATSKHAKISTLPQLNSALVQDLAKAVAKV
T1 sequence (P11362 478-767 limits assumed): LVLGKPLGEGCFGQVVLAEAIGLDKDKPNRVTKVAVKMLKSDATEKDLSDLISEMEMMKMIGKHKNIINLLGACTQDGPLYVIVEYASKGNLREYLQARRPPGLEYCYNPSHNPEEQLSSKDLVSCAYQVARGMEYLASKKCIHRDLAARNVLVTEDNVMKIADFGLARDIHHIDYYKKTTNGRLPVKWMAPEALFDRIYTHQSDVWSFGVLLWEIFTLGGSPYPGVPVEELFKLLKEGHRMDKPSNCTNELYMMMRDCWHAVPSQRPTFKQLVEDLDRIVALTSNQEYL
cdk4/D, sequence (P11802 whole entry): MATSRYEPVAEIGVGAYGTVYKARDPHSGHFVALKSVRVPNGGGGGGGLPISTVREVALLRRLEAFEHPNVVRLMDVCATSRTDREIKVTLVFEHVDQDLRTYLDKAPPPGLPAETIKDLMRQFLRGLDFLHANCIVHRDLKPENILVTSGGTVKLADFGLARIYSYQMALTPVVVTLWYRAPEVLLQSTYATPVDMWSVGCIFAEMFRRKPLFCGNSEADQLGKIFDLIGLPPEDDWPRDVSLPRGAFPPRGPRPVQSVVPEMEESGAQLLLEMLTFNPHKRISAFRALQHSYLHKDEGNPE
cdk4/D, sequence (P24385 whole entry, further chain): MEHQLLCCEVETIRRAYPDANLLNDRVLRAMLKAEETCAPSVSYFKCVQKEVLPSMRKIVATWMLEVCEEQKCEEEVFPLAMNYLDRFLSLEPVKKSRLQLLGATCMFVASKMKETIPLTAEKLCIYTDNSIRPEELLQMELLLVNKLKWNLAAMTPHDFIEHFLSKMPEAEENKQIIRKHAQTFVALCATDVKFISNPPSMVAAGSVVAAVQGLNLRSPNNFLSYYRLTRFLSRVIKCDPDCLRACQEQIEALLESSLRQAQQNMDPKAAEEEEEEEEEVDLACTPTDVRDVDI

As for `COc1ccc(Nc2ncc3c(n2)N(C2CCCC2)C(=O)NC3)cc1` [Example 9, 1-Cyclopentyl-7-(4-methoxyphenylamino)-3,4-dihydro-pyrimido[4,5-d]pyrimidin-2(1H)-one], the results for the IC50 in assay [1] and in assay [2] were 0.36 µM and 5.75 µM, respectively.

As for `CCN(CC)CCOc1ccc(Nc2ncc3c(n2)N(C2CCCC2)C(=O)NC3)cc1C` [Example 13, 1-Cyclopentyl-7-{3-methyl-4-[2-(diethylamino)ethoxy]phenylamino}-3,4-dihydro-pyrimido[4,5-d]pyrimidin-2(1H)-one], the IC50 in assay [1] was 0.05 to 0.5 µM; in assay [2] it was 0.3 µM.

As for `O=C1NCc2cnc(Nc3ccc(N4CCC(CCCO)CC4)cc3)nc2N1C1CCCC1` [Example 20, 1-Cyclopentyl-7-{4-[4-(3-hydroxypropyl)piperidin-1-yl]phenylamino}-3,4-dihydro-pyrimido[4,5-d]pyrimidin-2(1H)-one], the IC50 in assay [3] was 2.72 µM; in assay [4] it was 5.35 µM; in assay [2] it was 0.42 µM; in assay [5] it was more than 40 µM.

For `CC(C)N1C(=O)NCc2cnc(Nc3ccc(N4CCC(O)CC4)cc3)nc21` [Example 23, 7-[4-(4-Hydroxypiperidin-1-yl)phenylamino]-1-isopropyl-3,4-dihydropyrimido[4,5-d]pyrimidin-2(1H)-one], the IC50 was 4.39 µM in assay [3], 16.8 µM in assay [4] and more than 40 µM in assay [5].

In the case of `CC(C)N1C(=O)NCc2cnc(Nc3ccc(N4CCC(N(C)C)CC4)cc3)nc21` [Example 24, 7-{4-[4-(Dimethylamino)piperidin-1-yl]phenylamino}-1-isopropyl-3,4-dihydro-pyrimido[4,5-d]pyrimidin-2(1H)-one; compound with trifluoroacetic acid], the results for the IC50 in assay [3], in assay [4] and in assay [5] were 12.3 µM, 34 µM and more than 40 µM, respectively.

As to `CC(C)N1C(=O)NCc2cnc(Nc3ccc(-n4cccn4)cc3)nc21` [Example 25, 1-Isopropyl-7-[4-(pyrazol-1-yl)phenylamino]-3,4-dihydro-pyrimido[4,5-d]pyrimidin-2(1H)-one; compound with trifluoroacetic acid], the IC50 in assay [3] was found to be 2.31 µM; in assay [4] it was 10 µM; in assay [5], 36.5 µM.

For the compound `CC(C)N1C(=O)NCc2cnc(Nc3ccc(N4CCC(CCCN5CCOCC5)CC4)cc3)nc21` [Example 26, 1-Isopropyl-7-{4-[4-(3-(morpholin-1-yl)propyl)piperidin-1-yl]phenylamino}-3,4-dihydro-pyrimido[4,5-d]pyrimidin-2(1H)-one], the inhibition at 40 µM in assay [2] (read-out: % Inhibition at 40 µM cdk4/D) came out at 47%.

Regarding `CN1CCN(c2ccc(Nc3ncc4c(n3)N(C)C(=O)NC4)cc2)CC1` [Example 28, 1-Methyl-7-[4-(4-methylpiperazin-1-yl)phenylamino]-3,4-dihydropyrimido[4,5-d]pyrimidin-2(1H)-one; compound with trifluoroacetic acid], the IC50 in assay [3] and in assay [5] was more than 40 µM throughout.

Regarding `CN1C(=O)NCc2cnc(Nc3ccc(N4CCC(O)CC4)cc3)nc21` [Example 29, 7-[4-(4-Hydroxypiperidin-1-yl)phenylamino]-1-methyl-3,4-dihydropyrimido[4,5-d]pyrimidin-2(1H)-one; compound with trifluoroacetic acid], the IC50 in assay [3], in assay [2] and in assay [5] was more than 40 µM throughout.

As for `CN1C(=O)NCc2cnc(Nc3ccc(N4CCC(N(C)C)CC4)cc3)nc21` [Example 30, 7-{4-[4-(Dimethylamino)piperidin-1-yl]phenylamino}-1-methyl-3,4-dihydropyrimido[4,5-d]pyrimidin-2(1H)-one; compound with trifluoroacetic acid], the IC50 in assay [3] is more than 40 µM; in assay [2], 18.2 µM; in assay [5], more than 40 µM.

`CN1C(=O)NCc2cnc(Nc3ccc(-n4cccn4)cc3)nc21` [Example 31, 1-Methyl-7-[4-(pyrazol-1-yl)phenylamino]-3,4-dihydro-pyrimido[4,5-d]pyrimidin-2(1H)-one; compound with trifluoroacetic acid]: the IC50 in assay [3] and in assay [5] was more than 40 µM throughout.

Regarding `O=c1ncc2cnc(Nc3ccc(N4CCC(O)CC4)cc3)nc2n1C1CCCC1` [Example 33, 1-Cyclopentyl-7-[4-(4-hydroxypiperidin-1-yl)phenylamino]pyrimido[4,5-d]pyrimidin-2(1H)-one], the IC50 in assay [3] (setting [6]) was determined as 0.98 µM; in assay [4] (setting [7]), 4.2 µM; in assay [2] (setting [8]) it was 0.038 µM; in assay [5] (setting [9]), 9.76 µM.

Regarding `CCN(CC)CCOc1ccc(Nc2ncc3cnc(=O)n(C4CCCC4)c3n2)cc1C` [Example 34, 1-Cyclopentyl-7-{3-methyl-4-[2-(diethylamino)ethoxy]-phenylamino}pyrimido[4,5-d]pyrimidin-2(1H)-one], the IC50 in assay [3] is 3.22 µM; in assay [4] it was 3.15 µM; in assay [2], 0.079 µM; in assay [5], 7.51 µM.

For the compound `COc1ccc(Nc2ncc3cnc(=O)n(C4CCCC4)c3n2)cc1` [Example 37, 1-Cyclopentyl-7-(4-methoxyphenylamino)pyrimido[4,5-d]pyrimidin-2(1H)-one], the IC50 in assay [3] was found to be 0.4 µM; in assay [4], 0.9 µM; in assay [2], 0.22 µM; in assay [5] it was 4.76 µM.

Consider `O=c1ncc2cnc(Nc3ccc(N4CCCCC4)cc3)nc2n1C1CCCC1` [Example 38, 1-Cyclopentyl-7-[4-(piperidin-1-yl)phenylamino]pyrimido[4,5-d]pyrimidin-2(1H)-one], for which the IC50 in assay [3] (setting [6]) was 0.77 µM; in assay [4] (setting [7]), 2.78 µM; in assay [2] (setting [8]), 0.15 µM; in assay [5] (setting [9]), 35.2 µM.

Consider `CC(C)n1c(=O)ncc2cnc(Nc3ccc(-n4cccn4)cc3)nc21` [Example 42, 1-Isopropyl-7-[4-(pyrazol-1-yl)phenylamino]pyrimido[4,5-d]pyrimidin-2(1H)-one], for which the IC50 was 5.81 µM in assay [3], more than 40 µM in assay [4], 3.9 µM in assay [2] and more than 40 µM in assay [5].

Take `CN1CCN(c2ccc(Nc3ncc4cnc(=O)n(C)c4n3)cc2)CC1` [Example 45, 1-Methyl-7-[4-(4-methylpiperazin-1-yl)phenylamino]pyrimido[4,5-d]pyrimidin-2(1H)-one]: the results for the IC50 in assay [3], in assay [2] and in assay [5] were more than 40 µM, 16.2 µM and more than 40 µM, respectively.

With `CN(C)C1CCN(c2ccc(Nc3ncc4cnc(=O)n(C)c4n3)cc2)CC1` [Example 46, 7-{4-[4-(Dimethylamino)piperidin-1-yl]phenylamino}-1-methyl-pyrimido[4,5-d]pyrimidin-2(1H)-one], the IC50 was more than 40 µM in assay [3], 22.6 µM in assay [1], more than 40 µM in assay [2] and more than 40 µM in assay [5].

In the case of `Cn1c(=O)ncc2cnc(Nc3ccc(-n4cccn4)cc3)nc21` [Example 47, 1-Methyl-7-[4-(pyrazol-1-yl)phenylamino]pyrimido[4,5-d]pyrimidin-2(1H)-one], the IC50 in assay [3], in assay [2] and in assay [5] was more than 40 µM throughout.
